Measured values published in patent US6828334B2, “Fenofibrate-cyclodextrin inclusion complexes and their pharmaceutical composition” (USV Limited, priority 2002, dated 2004).

Experiment: in-vitro dissolution, rotating blade method at 75 rpm according to USP24
Assay type: physicochemical

- % release of fenofibrate (water with 0.025 M sodium lauryl sulfate, 1200 ml, 5 min): 8-10%
- % release of fenofibrate (water with 0.025 M sodium lauryl sulfate, 1200 ml, 10 min): 16-22%
- % release of fenofibrate (water with 0.025 M sodium lauryl sulfate, 1200 ml, 20 min): 24-30%
- % release of fenofibrate (water with 2% by weight polysorbate-80, 1200 ml, 5 min): 4-8%
- % release of fenofibrate (water with 2% by weight polysorbate-80, 1200 ml, 10 min): 19-22%
- % release of fenofibrate (water with 2% by weight polysorbate-80, 1200 ml, 20 min): 30-32%
- % release of fenofibrate (water with 2% by weight polysorbate-80, 1200 ml, 30 min): 36-38%
Compound: CC(C)OC(=O)C(C)(C)Oc1ccc(C(=O)c2ccc(Cl)cc2)cc1 [fenofibrate, 2-[4-(4-chlorobenzoyl)phenoxy]-2-methyl propionate]
